This assay addresses uricase from Micrococcus luteus NRRL B-8166. As to the kind of experiment: Spectrophotometric uricase assay (disappearance of uric acid at 290 nm). The settings on record: assay in 50 mM KPi buffer pH 8.6, 30° C; read-out: inhibition constant for oxonate. It is filed as biochemical. The protocol: Uricase was assayed spectrophotometrically by following the disappearance of uric acid at 290 nm using a modification of the procedure described by Mahler et. al, J. Biol. Chem., p. 625, 216 (1955). Assay tubes contained 2.7 ml 50 mM KPi buffer pH 8.6, 0.1 mM sodium EDTA, 0.05 ml 6 mM urate, plus enzyme and water to give a final volume of 3.0 ml. Changes or additions to the assay mixtures were made when necessary. Tubes were incubated for 5 minutes at 30° C; the reaction was started by adding enzyme. Molar extinction coefficient for uric acid at 290 nm is 12,300. Activity was expressed in units of uricase activity, where a unit is that amount of enzyme which catalyzes the oxidation of one μmole of uric acid per minute at 30° C and pH 8.6.

In the case of `O=C(O)c1nc(=O)[nH]c(=O)[nH]1` [oxonate], the Ki was 4.5 µM.

The record behind these values is US4062731A, “Production of uricase from micrococcus luteus” (Eastman Kodak Company, priority 1976, dated 1977).
